Values quoted from earlier work in patent US9555029B2 (HIKMA PHARMACEUTICALS, priority 2013, dated 2017).

How the values were obtained:
[1] = molecular target: CYP3A4 (Homo sapiens, UniProt P08684); details: FDA definition of relative strength; cited from earlier work
[2] = molecular target: P-gp (Homo sapiens, UniProt P08183); details: FDA definition; cited from earlier work
P-gp, sequence (P08183 whole entry): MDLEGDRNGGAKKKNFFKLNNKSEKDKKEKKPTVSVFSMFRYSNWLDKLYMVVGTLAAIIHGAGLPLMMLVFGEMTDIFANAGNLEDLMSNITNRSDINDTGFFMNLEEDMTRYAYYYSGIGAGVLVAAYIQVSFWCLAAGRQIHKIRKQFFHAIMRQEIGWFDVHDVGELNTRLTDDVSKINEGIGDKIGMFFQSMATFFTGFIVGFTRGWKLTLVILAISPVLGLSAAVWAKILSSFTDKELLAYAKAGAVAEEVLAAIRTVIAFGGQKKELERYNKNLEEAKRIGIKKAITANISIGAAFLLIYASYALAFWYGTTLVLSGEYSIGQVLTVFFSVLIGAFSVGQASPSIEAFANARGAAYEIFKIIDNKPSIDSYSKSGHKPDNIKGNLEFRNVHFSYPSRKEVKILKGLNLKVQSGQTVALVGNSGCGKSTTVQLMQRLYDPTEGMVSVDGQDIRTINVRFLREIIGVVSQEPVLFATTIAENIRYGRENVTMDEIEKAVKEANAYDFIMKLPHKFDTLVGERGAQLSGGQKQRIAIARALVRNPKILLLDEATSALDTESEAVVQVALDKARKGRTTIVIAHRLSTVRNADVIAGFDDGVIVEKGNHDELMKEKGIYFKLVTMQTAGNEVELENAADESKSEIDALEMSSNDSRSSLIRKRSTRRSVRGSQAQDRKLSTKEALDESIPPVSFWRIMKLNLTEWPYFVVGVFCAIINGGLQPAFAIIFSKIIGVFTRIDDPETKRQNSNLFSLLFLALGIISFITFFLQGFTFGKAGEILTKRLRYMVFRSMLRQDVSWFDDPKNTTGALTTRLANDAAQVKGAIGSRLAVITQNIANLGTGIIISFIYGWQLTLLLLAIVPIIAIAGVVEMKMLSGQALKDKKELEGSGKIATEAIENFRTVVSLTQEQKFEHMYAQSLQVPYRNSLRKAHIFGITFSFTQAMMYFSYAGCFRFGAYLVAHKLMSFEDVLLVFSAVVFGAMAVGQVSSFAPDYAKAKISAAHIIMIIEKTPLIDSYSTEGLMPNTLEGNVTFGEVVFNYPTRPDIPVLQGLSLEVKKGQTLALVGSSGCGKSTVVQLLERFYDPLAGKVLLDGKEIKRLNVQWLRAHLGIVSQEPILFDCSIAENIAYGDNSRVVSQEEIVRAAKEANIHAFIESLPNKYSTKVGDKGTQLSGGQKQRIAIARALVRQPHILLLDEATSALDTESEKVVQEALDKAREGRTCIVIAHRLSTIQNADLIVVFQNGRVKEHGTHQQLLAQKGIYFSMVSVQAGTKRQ

CYP3A4, sequence (P08684 whole entry): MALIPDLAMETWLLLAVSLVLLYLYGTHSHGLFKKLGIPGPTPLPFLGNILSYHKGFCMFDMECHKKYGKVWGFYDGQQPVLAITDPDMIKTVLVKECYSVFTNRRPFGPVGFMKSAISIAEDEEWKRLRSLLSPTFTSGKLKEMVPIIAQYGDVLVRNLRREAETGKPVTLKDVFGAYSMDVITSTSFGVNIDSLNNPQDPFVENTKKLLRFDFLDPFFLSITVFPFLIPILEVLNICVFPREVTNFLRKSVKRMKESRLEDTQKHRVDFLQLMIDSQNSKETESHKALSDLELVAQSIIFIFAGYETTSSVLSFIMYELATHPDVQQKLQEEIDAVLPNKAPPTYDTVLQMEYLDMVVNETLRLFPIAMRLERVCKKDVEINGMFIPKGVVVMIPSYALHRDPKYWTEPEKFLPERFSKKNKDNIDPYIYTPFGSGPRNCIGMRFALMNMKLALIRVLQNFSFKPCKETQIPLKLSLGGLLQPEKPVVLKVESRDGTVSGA

Row | Structure (SMILES) | Strength as inhibitor of CYP3A4 [1] | Inhibitor of P-gp [2]
1 | OC(Cn1cncn1)(Cn1cncn1)c1ccc(F)cc1F [Fluconazole, 2-(2,4-difluorophenyl)-1,3-bis(1H-1,2,4-triazol-1-yl)propan-2-ol] | moderate (“Moderate inhibitors” cause ≧2-fold but <5-fold (i.e., 100-399%) increase in AUC) | not an inhibitor
2 | C[C@@H](c1ncncc1F)[C@](O)(Cn1cncn1)c1ccc(F)cc1F [Voriconazole, (2R,3S)-2-(2,4-difluorophenyl)-3-(5-fluoropyrimidin-4-yl)-1-(1H-1,2,4-triazol-1-yl)butan-2-ol] | – | not an inhibitor
3 | CN/C(=N/CCSCc1nc[nH]c1C)NC#N [Cimetidine, 2-cyano-1-methyl-3-(2-[(5-methyl-1H-imidazol-4-yl)methylthio]ethyl)guanidine] | – | not an inhibitor
